This test deals with T1, human adenosine A2b receptor (Homo sapiens, UniProt P29275).
T1 construct: expressed in transfected cells; host or cells: CHO-K1 (Chinese Hamster Ovary) with CRE-luciferase reporter
T1 sequence (P29275 1-332): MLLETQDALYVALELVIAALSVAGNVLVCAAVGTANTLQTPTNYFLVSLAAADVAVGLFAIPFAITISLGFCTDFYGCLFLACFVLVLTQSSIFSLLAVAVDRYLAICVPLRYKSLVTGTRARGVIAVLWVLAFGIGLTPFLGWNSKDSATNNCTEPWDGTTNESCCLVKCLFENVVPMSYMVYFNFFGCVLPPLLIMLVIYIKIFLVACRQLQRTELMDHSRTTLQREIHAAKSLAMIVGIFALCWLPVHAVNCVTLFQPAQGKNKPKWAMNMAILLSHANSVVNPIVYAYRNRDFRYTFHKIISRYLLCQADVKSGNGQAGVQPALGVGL
Nature of the test: Cellular reporter gene (CRE-luciferase) A2b receptor antagonist assay in recombinant CHO-K1 cells stimulated with NECA. The class given is cell-based. Particulars: recombinant CHO-K1 cell line, co-incubation with EC50 concentration of NECA, 3 hours, in some cases means, rounded to two significant digits. On the procedure: B-1. Cellular In Vitro Tests for Determining A2b Receptor Activity and Adenosine Receptor Selectivity
The identification of selective antagonists of the human adenosine A2b receptor and the quantification of the efficacy and selectivity of the compounds according to the invention was carried out with the aid of recombinant cell lines for the human adenosine receptors A1, A2a, A2b and A3. These cell lines were originally derived from an ovarepithelial cell of the hamster (Chinese Hamster Ovary, CHO-K1, American Type Culture Collection, Manassas, Va. 20108, USA). In addition to the respective recombinantly expressed adenosine receptor for testing the efficacy at the A1, A2a and A2b receptors, the cell lines contain a reporter gene construct where expression of the firefly (Photinus pyralis) luciferase is under the control of a promoter which can be activated via intracellular signal cascades by stimulation of the receptors with the (not subtype-selective) adenosine receptor agonist NECA (5′-N-ethylcarboxamidoadenosine) [S. J. Hill, J. G. Baker, S. Rhees, Curr. Opin. Pharmacol. 1, 526-532 (2001)].
In the case of the A2a and A2b cell lines, this is a minimal promoter having a plurality of cAMP-responsive elements (CRE). Stimulation of the Gs coupled A2b or A2a receptors by NECA ultimately leads, via formation of cAMP, to CRE-dependent induction of luciferase expression, which is detected 3 hours after the start of the incubation with NECA using a detection solution in a suitable luminometer. For testing the antagonists, initially, in a pre-experiment, the concentration of NECA which, at the test day in question, results in half-maximum stimulation of luciferase expression (EC50 concentration) is determined By joint incubation of this EC50 concentration of NECA with the substances to be tested, it is possible to determine their antagonistic activity.

Usually IC50 stands for the concentration that inhibits the measured activity by half.

Take `COC(Cn1c(=O)c2c(C)c(C(=O)N3CCC(O)CC3)sc2n(CCC(F)(F)F)c1=O)C(F)(F)F` (single isomer, unassigned) [Example 107, 6-[(4-Hydroxypiperidin-1-yl)carbonyl]-5-methyl-3-(3,3,3-trifluoro-2-methoxypropyl)-1-(3,3,3-trifluoropropyl)thieno[2,3-d]pyrimidine-2,4(1H,3H)-dione]: the IC50 turned out to be 45 nM.

Take `COC(Cn1c(=O)c2c(C)c(C(=O)N3CCC(O)CC3)sc2n(CCC(F)(F)F)c1=O)C(F)(F)F` (single isomer, unassigned) [Example 108, 6-[(4-Hydroxypiperidin-1-yl)carbonyl]-5-methyl-3-(3,3,3-trifluoro-2-methoxypropyl)-1-(3,3,3-trifluoropropyl)thieno[2,3-d]pyrimidine-2,4(1H,3H)-dione]: the half-maximal inhibitory concentration (IC50) is 580 nM.

Regarding `COC(Cn1c(=O)c2c(C)c(C(=O)N3CCC(O)(CO)CC3)sc2n(CCC(F)(F)F)c1=O)C(F)(F)F` (single isomer, unassigned) [Example 114, 6-{[4-Hydroxy-4-(hydroxymethyl)piperidin-1-yl]carbonyl}-5-methyl-3-(3,3,3-trifluoro-2-methoxypropyl)-1-(3,3,3-trifluoropropyl)thieno[2,3-d]pyrimidine-2,4(1H,3H)-dione], the IC50 was 110 nM.

For the molecule `COC(Cn1c(=O)c2c(C)c(C(=O)N3CCC(O)(CO)CC3)sc2n(CCC(F)(F)F)c1=O)C(F)(F)F` (single isomer, unassigned) [Example 115, 6-{[4-Hydroxy-4-(hydroxymethyl)piperidin-1-yl]carbonyl}-5-methyl-3-(3,3,3-trifluoro-2-methoxypropyl)-1-(3,3,3-trifluoropropyl)thieno[2,3-d]pyrimidine-2,4(1H,3H)-dione], the IC50 is 610 nM.

For the molecule `CCn1c(=O)c2c(C)c(C(=O)N3CCC(O)C(O)C3)sc2n(CCC(F)(F)F)c1=O` (single isomer, unassigned) [Example 117, 6-[(3,4-Dihydroxypiperidin-1-yl)carbonyl]-3-ethyl-5-methyl-1-(3,3,3-trifluoropropyl)thieno [2,3-d]pyrimidine-2,4(1H,3H)-dione], the IC50 came to 140 nM.

On to `CCn1c(=O)c2c(C)c(C(=O)N3CCC(O)C(O)C3)sc2n(CCC(F)(F)F)c1=O` (single isomer, unassigned) [Example 118, 6-[(3,4-Dihydroxypiperidin-1-yl)carbonyl]-3-ethyl-5-methyl-1-(3,3,3-trifluoropropyl)thieno [2,3-d]pyrimidine-2,4(1H,3H)-dione], for which the IC50 amounted to 200 nM.

For `CCn1c(=O)c2c(C)c(C(=O)N3CCC(O)C(O)C3)sc2n(CCC(F)(F)F)c1=O` (single isomer, unassigned) [Example 120, 6-[(3,4-Dihydroxypiperidin-1-yl)carbonyl]-3-ethyl-5-methyl-1-(3,3,3-trifluoropropyl)thieno [2,3-d]pyrimidine-2,4(1H,3H)-dione], the half-maximal inhibitory concentration (IC50) is 130 nM.

As to `CCn1c(=O)c2c(C)c(C(=O)N3CCC(O)C(O)C3)sc2n(CCC(F)(F)F)c1=O` (single isomer, unassigned) [Example 121, 6-[(3,4-Dihydroxypiperidin-1-yl)carbonyl]-3-ethyl-5-methyl-1-(3,3,3-trifluoropropyl)thieno [2,3-d]pyrimidine-2,4(1H,3H)-dione], the IC50 amounted to 180 nM.

`Cc1c(C(=O)N2CCC(O)CC2)sc2c1c(=O)n(CC(C)(O)c1ccccc1)c(=O)n2CCC(F)(F)F` (single isomer, unassigned) [Example 132, 3-(2-Hydroxy-2-phenylpropyl)-6-[(4-hydroxypiperidin-1-yl)carbonyl]-5-methyl-1-(3,3,3-trifluoropropyl)thieno[2,3-d]pyrimidine-2,4(1H,3H)-dione]: the half-maximal inhibitory concentration (IC50) stood at 24 nM.

Turning to `Cc1c(C(=O)N2CCC(O)CC2)sc2c1c(=O)n(CC(C)(O)c1ccccc1)c(=O)n2CCC(F)(F)F` (single isomer, unassigned) [Example 133, 3-(2-Hydroxy-2-phenylpropyl)-6-[(4-hydroxypiperidin-1-yl)carbonyl]-5-methyl-1-(3,3,3-trifluoropropyl)thieno[2,3-d]pyrimidine-2,4(1H,3H)-dione], the 50% inhibitory concentration (IC50) came out at 850 nM.

For `CCn1c(=O)c2c(C(C)F)c(C(=O)N3CCNC(=O)C3)sc2n(CCC(F)(F)F)c1=O` (single isomer, unassigned) [Example 148, 3-Ethyl-5-(1-fluoroethyl)-6-[(3-oxopiperazin-1-yl)carbonyl]-1-(3,3,3-trifluoropropyl)thieno[2,3-d]pyrimidine-2,4(1H,3H)-dione], the IC50 worked out at 240 nM.

Consider `CCn1c(=O)c2c(C(C)F)c(C(=O)N3CCNC(=O)C3)sc2n(CCC(F)(F)F)c1=O` (single isomer, unassigned) [Example 149, 3-Ethyl-5-(1-fluoroethyl)-6-[(3-oxopiperazin-1-yl)carbonyl]-1-(3,3,3-trifluoropropyl)thieno[2,3-d]pyrimidine-2,4(1H,3H)-dione], for which the half-maximal inhibitory concentration (IC50) came to 320 nM.

Take `Cc1c(C(=O)N2CCC(O)CC2)sc2c1c(=O)n(CC(C)c1ccccc1)c(=O)n2CCC(F)(F)F` (single isomer, unassigned; enantiomer 1) [Example 44, 6-[(4-Hydroxypiperidin-1-yl)carbonyl]-5-methyl-3-(2-phenylpropyl)-1-(3,3,3-trifluoropropyl)thieno[2,3-d]pyrimidine-2,4(1H,3H)-dione (enantiomer 1)]: the half-maximal inhibitory concentration (IC50) came out at 4.6 nM.

On to `COC(Cn1c(=O)c2c(C)c(C(=O)N3CCC(O)CC3)sc2n(CCC(F)(F)F)c1=O)c1ccccc1` (single isomer, unassigned; enantiomer 1) [Example 48, 6-[(4-Hydroxypiperidin-1-yl)carbonyl]-3-(2-methoxy-2-phenylethyl)-5-methyl-1-(3,3,3-trifluoropropyl)thieno[2,3-d]pyrimidine-2,4(1H,3H)-dione (enantiomer 1)], for which the 50% inhibitory concentration (IC50) is 59 nM.

Turning to `Cc1c(C(=O)N2CCC(O)CC2)sc2c1c(=O)n(CC(C)c1ccccc1)c(=O)n2CCC(F)(F)F` (single isomer, unassigned; enantiomer 2) [Example 45, 6-[(4-Hydroxypiperidin-1-yl)carbonyl]-5-methyl-3-(2-phenylpropyl)-1-(3,3,3-trifluoropropyl)thieno[2,3-d]pyrimidine-2,4(1H,3H)-dione (enantiomer 2)], the IC50 amounted to 150 nM.

For `COC(Cn1c(=O)c2c(C)c(C(=O)N3CCC(O)CC3)sc2n(CCC(F)(F)F)c1=O)c1ccccc1` (single isomer, unassigned; enantiomer 2) [Example 47, 6-[(4-Hydroxypiperidin-1-yl)carbonyl]-3-(2-methoxy-2-phenylethyl)-5-methyl-1-(3,3,3-trifluoropropyl)thieno[2,3-d]pyrimidine-2,4(1H,3H)-dione (enantiomer 2)], the concentration for half-maximal inhibition (IC50) amounted to 4.4 nM.

As to `COCCn1c(=O)n(CCc2ccccc2)c(=O)c2c(C)c(C(=O)N3CCC(O)CC3)sc21` [Example 3, 6-[(4-Hydroxypiperidin-1-yl)carbonyl]-1-(2-methoxyethyl)-5-methyl-3-(2-phenylethyl)thieno [2,3-d]pyrimidine-2,4(1H,3H)-dione], the half-maximal inhibitory concentration (IC50) was determined as 290 nM.

Take `Cc1c(C(=O)N2CCC(O)CC2)sc2c1c(=O)n(CCc1ccccc1F)c(=O)n2CCC=C(F)F` [Example 5, 1-(4,4-Difluorobut-3-en-1-yl)-3-[2-(2-fluorophenyl)ethyl]-6-[(4-hydroxypiperidin-1-yl)carbonyl]-5-methylthieno[2,3-d]pyrimidine-2,4(1H,3H)-dione]: the IC50 stood at 52 nM.

In the case of `Cc1c(C(=O)N2CCC(O)CC2)sc2c1c(=O)n(CCc1ccccc1Cl)c(=O)n2CCC=C(F)F` [Example 7, 3-[2-(2-Chlorophenyl)ethyl]-1-(4,4-difluorobut-3-en-1-yl)-6-[(4-hydroxypiperidin-1-yl)carbonyl]-5-methylthieno[2,3-d]pyrimidine-2,4(1H,3H)-dione], the concentration for half-maximal inhibition (IC50) came out at 110 nM.

Consider `Cc1c(C(=O)N2CCC(O)CC2)sc2c1c(=O)n(CCc1cccc(F)c1)c(=O)n2CCC(F)(F)F` [Example 9, 3-[2-(3-Fluorophenyl)ethyl]-6-[(4-hydroxypiperidin-1-yl)carbonyl]-5-methyl-1-(3,3,3-trifluoropropyl)thieno[2,3-d]pyrimidine-2,4(1H,3H)-dione], for which the IC50 came to 52 nM.

Turning to `Cc1c(C(=O)N2CCC(O)CC2)sc2c1c(=O)n(CCc1cccc(Cl)c1)c(=O)n2CCC(F)(F)F` [Example 10, 3-[2-(3-Chlorophenyl)ethyl]-6-[(4-hydroxypiperidin-1-yl)carbonyl]-5-methyl-1-(3,3,3-trifluoropropyl)thieno[2,3-d]pyrimidine-2,4(1H,3H)-dione], the IC50 is 310 nM.

(Values after patent US9604996B2 (Bayer Pharma Aktiengesellschaft, priority 2013, dated 2017).)
